# Experimental data from article PMC11061835, “Elucidating the Mechanism of Metabolism of Cannabichromene by Human Cytochrome P450s” (Journal of Natural Products, 2024).
# pKd: −log10 of the molar value. Several values for one entry are separate records, joined by “and”; a condition that tells them apart may be missing. Equal entries are not always repeated.
# Legend:
# CYP2C8 = biological target: T1, CYP2C8 (Homo sapiens, UniProt P10632); test: CBC metabolism by CYP2C8; format: in vitro ADME; settings: CYP2C8, from Vmax
# T1 construct: His-tag; made in house; host or cells: E. coli DH-5α with pTGro7 plasmid
# T1 sequence (P10632 1-490): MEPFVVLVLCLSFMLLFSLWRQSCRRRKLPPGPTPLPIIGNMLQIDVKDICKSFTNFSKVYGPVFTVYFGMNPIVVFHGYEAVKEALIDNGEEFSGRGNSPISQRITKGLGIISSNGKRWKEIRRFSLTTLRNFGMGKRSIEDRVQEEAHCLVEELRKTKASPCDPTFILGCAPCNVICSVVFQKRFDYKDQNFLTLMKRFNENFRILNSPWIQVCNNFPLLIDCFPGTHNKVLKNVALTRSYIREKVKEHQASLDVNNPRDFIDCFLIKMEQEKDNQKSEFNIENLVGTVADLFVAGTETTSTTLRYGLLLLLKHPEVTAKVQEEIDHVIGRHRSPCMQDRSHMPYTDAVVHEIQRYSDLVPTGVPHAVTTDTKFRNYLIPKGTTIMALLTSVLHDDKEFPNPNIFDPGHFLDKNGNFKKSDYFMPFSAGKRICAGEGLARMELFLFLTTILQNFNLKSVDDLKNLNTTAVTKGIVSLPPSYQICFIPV
# Method: To study the kinetics of CBC metabolism, concentration dependent metabolism of CBC was carried out in the presence of various CYPs using the following procedure. CYP2J2, CYP2C8, CYP2D6, CYP2C9, and CYP3A4 (final concentration 0.5 μM) were initially dissolved in lipid containing POPC:POPS (8:2 v/v) followed by addition of CPR (final concentration 0.6 μM) in 0.1 M potassium phosphate buffer (pH 7.4). CBC (5–80 μM) was added and incubated at 37 °C for 10 min. The reaction was triggered by NADPH and extracted using the exact sample protocol as mentioned in the HLM section.
# Samples were analyzed with the 5500 QTRAP LC/MS/MS system (Sciex, Framingham, MA) in the Metabolomics Lab of Roy J. Carver Biotechnology Center, University of Illinois at Urbana–Champaign. Software Analyst 1.7.1 was used for data acquisition and analysis. The 1200 series HPLC system (Agilent Technologies, Santa Clara, CA) includes a degasser, an autosampler, and a binary pump. […] Multiple reaction monitoring (MRM) was used for quantitation: CBC m/z 315.1 → m/z 135.0; 1-acetoxy-6′,7′-dihydroxy-CBC (JM-I-73) m/z 349.1→ m/z 193.0; 1″-hydroxy-CBC (JM-I-66) m/z 331.1→ m/z 275.1; 6′,7′-epoxy-CBC (JM-I-27) m/z 331.1→ m/z 193.0; 7′,10′-ene-6′-hydroxy-CBC (JM-I-30) m/z 331.1→ m/z 193.0; 8′-hydroxy-CBC (JM-I-32) […]→ m/z 77.0. Internal standard EET-EA-d11 was monitored at m/z 375.2→ m/z 357.1.
# [1] = biological target: T2, CYP2C8 in the presence of CPR (Homo sapiens, UniProt P10632); test: Spectroscopic titration, CYP2C8–CPR complex; format: binding
# T2 construct: His-tag; made in house; host or cells: E. coli DH-5α with pTGro7 plasmid (CYP)
# T2 sequence (P10632 1-490): T1 sequence (P10632 1-490)
# T2 sequence (P16435 1-677 partner): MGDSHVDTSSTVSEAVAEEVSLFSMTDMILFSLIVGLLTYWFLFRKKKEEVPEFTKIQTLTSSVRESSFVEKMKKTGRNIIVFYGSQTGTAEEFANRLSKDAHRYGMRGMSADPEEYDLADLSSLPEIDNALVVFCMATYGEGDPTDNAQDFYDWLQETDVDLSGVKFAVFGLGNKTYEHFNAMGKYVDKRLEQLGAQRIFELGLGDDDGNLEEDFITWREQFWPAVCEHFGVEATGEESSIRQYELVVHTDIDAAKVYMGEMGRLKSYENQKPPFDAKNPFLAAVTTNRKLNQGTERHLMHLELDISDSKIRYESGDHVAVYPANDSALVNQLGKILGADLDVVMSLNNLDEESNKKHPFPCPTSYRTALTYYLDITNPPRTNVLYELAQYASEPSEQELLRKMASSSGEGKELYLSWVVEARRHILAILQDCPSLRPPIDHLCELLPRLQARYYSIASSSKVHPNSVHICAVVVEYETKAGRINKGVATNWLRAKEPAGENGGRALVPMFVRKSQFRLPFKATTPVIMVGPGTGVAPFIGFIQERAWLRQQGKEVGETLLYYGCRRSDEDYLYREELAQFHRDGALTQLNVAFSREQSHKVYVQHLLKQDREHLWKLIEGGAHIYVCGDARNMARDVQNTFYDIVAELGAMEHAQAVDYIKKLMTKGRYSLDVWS
# Method: For CBC titration to CYP–CPR complex, initially CYPs were dissolved in 400 μL of 0.1 M phosphate buffer (pH = 7.4) keeping the concentration between […]. Following this 50 μL of CPR (50 μM stock) was added to both cuvettes, and the final concentration of both of the proteins was 5–6 μM. Both proteins were initially mixed and incubated for 5 min followed by titration with CBC in the same process as mentioned above. The substrate-bound spectra were then subtracted from substrate-free spectra, and the extent of binding was analyzed using Origin Pro 2020.
SMILES,"ratio of 8′-hydroxy-CBC to 6′,7′-epoxy-CBC formed (CYP2C8)",ΔAmax (spin state change due to heme perturbation) [1],pKd ([1]; read-out: Kd(app))
CCCCCc1cc(O)c2c(c1)OC(C)(CC/C=C(\C)CO)C=C2 (stereo not drawn) [8′-hydroxy-CBC],around 5,,
"CCCCCc1cc(O)c2c(c1)OC(C)(CCC=C(C)C)C=C2 (stereo not drawn) [CBC, Cannabichromene]",,0.14 ± 0.00 and ~0.15,5.08 and ~5.10 and > 5.00
